Compared with `CCOC(=O)c1cc(C)c2c(c1)c1ccccc1n2Cc1ccccc1`, `Nc1nonc1-c1nc2ccccc2n1CC(=O)c1ccccc1` is higher in melting point: 118 to 119 °C for the first, 202 to 204 °C for the second.

First: CCOC(=O)C1=C(C)NC(C)=C(C(=O)OCC)C1c1ccc(Br)cc1
Second: CCOC(=O)c1c(C(F)(F)F)oc(C(F)(F)F)c(C(=O)OCC)c1=O
The melting point of the first is higher: 164 to 165 °C for the first, 90 to 91 °C for the second.

First: O=C1C(=O)N(CCCCN2CCN(C(c3ccccc3)c3ccccc3)CC2)c2ccc(F)cc21
Second: CN1CCN(CCC2C(=O)NC(c3ccc(Cl)cc3)c3ccccc32)CC1 (stereo not drawn)
The melting point of the first is lower: 144 °C for the first, 201 to 205 °C for the second.

First: Cc1ccc(-n2c(-c3cc(-c4ccccc4)c(N4CCOCC4)s3)nc3ccccc3c2=O)cc1
Second: Cc1cccc(-n2c(-c3sc(Nc4ccc(Cl)cc4)nc3C)nc3ccccc3c2=O)c1
The melting point of the first is lower: 207 to 209 °C for the first, 236 to 238 °C for the second.

First: CC(NC(=O)CCCBr)c1ccccc1 (stereo not drawn)
Second: CCC(C)N(C)C(=O)c1cc(-c2ccccc2)c2sccc2c1 (stereo not drawn)
The melting point of the first is lower: 62 to 63 °C for the first, 105 °C for the second.

First: Cc1c(/C=C/C(=O)c2ccc3ccccc3c2)ncn1C(c1ccccc1)(c1ccccc1)c1ccccc1
Second: NCCc1cn(C(c2ccccc2)(c2ccccc2)c2ccccc2)cn1
The melting point of the first is higher: 194 to 197 °C for the first, 111 to 113 °C for the second.

Compared with `CCCCc1nc2c(N)nc3ccccc3c2n1CCCCCC(=O)c1ccccc1`, `CCCc1nc2c(N)nc3cc(OCCCNC(=O)C(C)C)ccc3c2n1CC(C)C` is higher in melting point: 149 to 151 °C for the first, 179 to 181 °C for the second.

Compared with `COc1ccc2c(c1)C(=C1CCN(Cc3ccccc3)CC1)C(=O)N2`, `C#CCOc1ccc(S(=O)(=O)C2(C(=O)O)CCN(Cc3ccc(OC)cc3)CC2)cc1` is higher in melting point: 152 °C for the first, 208 °C for the second.

First: c1ccc2c(OCC3CO3)c(OCC3CO3)ccc2c1 (stereo not drawn)
Second: OCc1cc2ccc3c4ccccc4ccc3c2o1
The melting point of the first is higher: 131 to 133 °C for the first, 125 to 126 °C for the second.

First: O=C(O)C1=Cc2cc(Cl)cc(-c3cccs3)c2OC1C(F)(F)F (stereo not drawn)
Second: Cc1n[nH]c(=O)c(-c2c(F)cc(F)cc2F)c1-c1cccs1
The melting point of the first is higher: 258 to 259 °C for the first, 249 to 251 °C for the second.

Compared with `C#CCNc1cc(C(=O)O)cc(S(N)(=O)=O)c1Oc1ccccc1`, `COC(=O)c1ccc2[nH]c(C#N)c(-c3ccccc3)c2c1` is higher in melting point: 222 to 223 °C for the first, 250 to 253 °C for the second.

First: Cc1c(-c2ccccc2)oc2c(C(O)CCCO)cccc2c1=O (stereo not drawn)
Second: Cc1ccc2c(c1)C(C(=O)Nc1ccccc1)c1ccccc1CO2 (stereo not drawn)
The melting point of the first is higher: 133 to 134 °C for the first, 129 to 130 °C for the second.

Compared with `CC#CCOc1ccc(S(=O)(=O)CNCC(C(=O)NO)N2CCN(S(C)(=O)=O)CC2)cc1` (stereo not drawn), `O=C(NCCNCC(O)COc1ccc(OCCOCC2CCC2)cc1)N1CCOCC1` (stereo not drawn) is higher in melting point: 86 °C for the first, 91 to 93 °C for the second.

First: Cc1cccc(-c2[nH]c(C(C)C)nc2-c2ccc(F)c(-c3ccc4c(c3)CCS4(=O)=O)c2)n1
Second: CCS(=O)(=O)c1ccc(-c2coc3ccc(-c4nnc(C)o4)cc23)cc1
The melting point of the first is lower: 119 to 123 °C for the first, 180 to 181 °C for the second.

First: ON=C1CCc2cc(F)ccc21
Second: O=C1OCc2cc(C(F)(F)F)ccc21
The melting point of the first is higher: 150 to 155 °C for the first, 71 to 72 °C for the second.

First: CCOc1ccccc1C=[N+]([O-])C(C)(C)C
Second: COC(=O)COc1ccc2cc(CNC(=O)OC(C)(C)C)ccc2c1Br
The melting point of the first is lower: 58.3 °C for the first, 96 to 100 °C for the second.

First: CN(CC(=O)C(Cc1ccccc1)NC(=O)c1ccccc1)C(=O)OCc1ccccc1 (stereo not drawn)
Second: O=C(OCc1ccccc1)C(O)P(=O)(OCc1ccccc1)OCc1ccccc1 (stereo not drawn)
The melting point of the first is higher: 140 to 141 °C for the first, 67 to 68 °C for the second.

Compared with `Cc1cnc2nc(SCc3ccccc3)nn2c1`, `CC1Cc2ccccc2C(=O)C1n1ccnc1` (stereo not drawn) is lower in melting point: 254 to 256 °C for the first, 153 to 155 °C for the second.

Compared with `CC(C)Cn1c(=O)c(-c2c(Cl)cccc2Cl)cc2cnc(N)nc21`, `COCc1cc2c(-c3ccc(C(F)(F)F)n(C)c3=O)c(F)cc(Cl)c2o1` is lower in melting point: 193 to 195 °C for the first, 136 to 137 °C for the second.

First: COCCCCCCCCCCCCCCSCCC(=O)OC
Second: CCCCCCCCCCCCc1ccc(S(=O)(=O)Nc2nncs2)cc1
The melting point of the first is lower: 31 to 32 °C for the first, 126 to 127 °C for the second.

Compared with `CC(=O)Oc1ccc2c(c1)C(=O)NC(C(Cl)(Cl)Cl)O2` (stereo not drawn), `CCCC(=O)NCc1cccc2c1C(=O)N(C1CCC(=O)NC1=O)C2=O` (stereo not drawn) is lower in melting point: 201 to 203 °C for the first, 121 to 123 °C for the second.

Compared with `COc1cc(COc2cc(CO)n(-c3ccccc3)n2)ccc1OCc1nc(-c2ccco2)oc1C`, `COc1cc(OC)cc(-c2nc[nH]c2-c2ccc(OC)c(O)c2)c1` is higher in melting point: 106 to 107 °C for the first, 181 to 182 °C for the second.

Compared with `COc1cccc(C(=NO)c2sccc2Br)c1`, `CCCC(=O)c1ccc(O)c(OC)c1` is lower in melting point: 100 to 103 °C for the first, 40 to 41 °C for the second.

First: Cc1[nH]cnc1/C=C/C(=O)c1coc2ccccc12
Second: O=C(CN1CCC(Cc2ccc(F)cc2)CC1)Nc1ccc2[nH]cnc2c1
The melting point of the first is lower: 192 to 193 °C for the first, 204 °C for the second.

First: CC1CC2C3CCC4=CC(=O)C=CC4(C)C3C(=O)CC2(C)C1C(=O)COC(=O)C(C)(C)C (stereo not drawn)
Second: COC(=O)[C@H](Cc1ccc(OS(=O)(=O)c2ccc(C)cc2)cc1)NC(=O)OC(C)(C)C
The melting point of the first is higher: 201 to 202 °C for the first, 78.8 to 79.5 °C for the second.

Compared with `C[C@@H]1CN(C(=O)N(c2ccccc2)c2ccccc2)[C@@H](C)CN1C(=O)N(c1ccccc1)c1ccccc1`, `O=C(COc1ccc(CCNCC(O)COc2ccccc2)cc1)NO` (stereo not drawn) is lower in melting point: 255 to 257 °C for the first, 126 to 128 °C for the second.

First: CN1Cc2c(-c3noc(CCl)n3)ncn2-c2ccc(F)cc2C1=O
Second: O=S(=O)(Nc1ccc2c(OCc3csc(-c4ccc(C(F)(F)F)cn4)n3)cccc2c1)C(F)(F)F
The melting point of the first is higher: 245 to 247 °C for the first, 197 to 198 °C for the second.

First: CCn1nc(C(F)(F)F)c(C(=O)O)c1Cl
Second: Nc1ncc(Sc2ccc(C(F)(F)F)cn2)s1
The melting point of the first is higher: 164 to 166 °C for the first, 135 to 138 °C for the second.

First: OCCSc1ccc(O)cc1
Second: Nc1ccc(C(O)c2ccc(Cl)cn2)cc1 (stereo not drawn)
The melting point of the first is lower: 70 °C for the first, 122 to 123 °C for the second.

First: C#Cc1cc(Nc2ncnc3cnc(NC(=O)CP(=O)(OCC)OCC)cc23)ccc1Cl
Second: COc1cc(C(=O)O)ccc1Cc1cn(C)c2ccc(CCNC(=O)N3CCOCC3)cc12
The melting point of the first is lower: 124 to 127 °C for the first, 221 to 226 °C for the second.

First: NS(=O)(=O)c1cc2cnccc2o1
Second: CN(C)C(=O)c1cccnc1S(=O)(=O)Br
The melting point of the first is higher: 216 to 218 °C for the first, 108 to 111 °C for the second.

First: COc1c(C)c(N2CCN(c3ccc4c(c3)OC(F)(F)O4)CC2)c(C)c2c1OC(C)(C)C2
Second: COc1ccc(C(O)(c2ccc(OC)cc2)C2CCNCC2)cc1
The melting point of the first is lower: 149 to 151 °C for the first, 153 to 155 °C for the second.

First: Clc1ncnc(Cl)c1C1OCCO1
Second: CNC1=NS(=O)N=C1NCCS (stereo not drawn)
The melting point of the first is lower: 108 to 110 °C for the first, 191 to 193 °C for the second.

Compared with `COC(Cc1nsc(N)n1)OC`, `Cc1c(CP(=O)(OCCCl)OCCCl)cc(C(C)(C)C)c(O)c1C` is higher in melting point: 62 to 66.5 °C for the first, 133 to 135 °C for the second.

First: C[C@]1(Cn2ccnc2)[C@H](C(=O)O)N2C(=O)C[C@H]2S1(=O)=O
Second: O=C1CNC(=O)N1c1ccc([N+](=O)[O-])cc1
The melting point of the first is lower: 161 °C for the first, 250 to 251 °C for the second.

First: Cn1c(COc2ccc(CC3SC(=O)NC3=O)cc2)nc2ccc(OCCc3ccc(C(C)(C)C)c(NC(=O)Nc4ccc(C(F)(F)F)cc4)c3)cc21 (stereo not drawn)
Second: CC(C)(O)C(O)c1ccc(C(=O)CCC(=O)/C(=C/C2CCOCC2)c2ccc(S(=O)(=O)C3CC3)cc2)nc1 (stereo not drawn)
The melting point of the first is higher: 165 to 167 °C for the first, 102 to 104 °C for the second.

For `O=C(O)CCCCCCC1=CC(O)CC1=O` (stereo not drawn), the melting point was 47 to 48.5 °C.

Reference: a melting point compilation (Tetko et al.; mined from patent text by program, amines drawn as free bases though some values may be those of a salt)
